Data taken from patent US8871753B2, “Macrocyclic compounds and their use as kinase inhibitors” (Incyte Corporation, priority 2008, dated 2014).

Columns and labels:
Type in all cases: biochemical
[1] = target: T1, human JAK1 (a.a. 837-1142) (Homo sapiens, UniProt P23458); assay: In vitro JAK kinase assay (HTRF, phosphorylation of a biotinylated peptide), JAK1; conditions: Table B1; read-out: JAK1 IC50
T1 construct: human JAK1 (a.a. 837-1142); His tag (N); made in house; host or cells: insect cells (baculovirus)
Procedure, shortened: (§1)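 Kinase reactions ran at room temperature for 1 h with ATP matched per isoform (JAK1 90 μM, JAK2 30 μM, JAK3 3 μM). After an EDTA stop, the phosphorylated biotin-peptide was read by HTRF using Eu-Py20 and SA-APC after 40 min binding.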

[2] = target: T2, human JAK3 (a.a. 781-1124) (Homo sapiens, UniProt P52333); assay: In vitro JAK kinase assay (HTRF, phosphorylation of a biotinylated peptide), JAK3; conditions: Table B1
T2 construct: JAK3 (a.a. 781-1124); His tag (N); made in house; host or cells: insect cells (baculovirus)
Procedure, shortened: as §1

[3] = target: T3, Recombinant Human Anaplastic Lymphoma Kinase (Homo sapiens, UniProt Q9UM73); assay: ALK HTRF kinase assay; conditions: compound at a concentration of 500 nM or 1 mM (not specified); cells shown as percentage
T3 construct: purchased Invitrogen, Carlsbad, Calif
Procedure, shortened: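 Recombinant human ALK with biotinylated peptide substrate; phosphorylation detected by HTRF using Eu-labelled anti-phosphotyrosine antibody and streptavidin-allophycocyanin. IC50 from a sigmoidal fit with Hill slope.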

TYK2 = TYK2 (Homo sapiens, UniProt P29597); assay: TYK2 kinase inhibition (Table A1); conditions: Table B1
[4] = target: T4, human JAK2 (a.a. 828-1132) (Homo sapiens, UniProt O60674); assay: In vitro JAK kinase assay (HTRF, phosphorylation of a biotinylated peptide), JAK2; conditions: Table B1
T4 construct: JAK2 (a.a. 828-1132); His tag (N); made in house; host or cells: insect cells (baculovirus)
Procedure, shortened: as §1

T3 sequence (Q9UM73 19-1620): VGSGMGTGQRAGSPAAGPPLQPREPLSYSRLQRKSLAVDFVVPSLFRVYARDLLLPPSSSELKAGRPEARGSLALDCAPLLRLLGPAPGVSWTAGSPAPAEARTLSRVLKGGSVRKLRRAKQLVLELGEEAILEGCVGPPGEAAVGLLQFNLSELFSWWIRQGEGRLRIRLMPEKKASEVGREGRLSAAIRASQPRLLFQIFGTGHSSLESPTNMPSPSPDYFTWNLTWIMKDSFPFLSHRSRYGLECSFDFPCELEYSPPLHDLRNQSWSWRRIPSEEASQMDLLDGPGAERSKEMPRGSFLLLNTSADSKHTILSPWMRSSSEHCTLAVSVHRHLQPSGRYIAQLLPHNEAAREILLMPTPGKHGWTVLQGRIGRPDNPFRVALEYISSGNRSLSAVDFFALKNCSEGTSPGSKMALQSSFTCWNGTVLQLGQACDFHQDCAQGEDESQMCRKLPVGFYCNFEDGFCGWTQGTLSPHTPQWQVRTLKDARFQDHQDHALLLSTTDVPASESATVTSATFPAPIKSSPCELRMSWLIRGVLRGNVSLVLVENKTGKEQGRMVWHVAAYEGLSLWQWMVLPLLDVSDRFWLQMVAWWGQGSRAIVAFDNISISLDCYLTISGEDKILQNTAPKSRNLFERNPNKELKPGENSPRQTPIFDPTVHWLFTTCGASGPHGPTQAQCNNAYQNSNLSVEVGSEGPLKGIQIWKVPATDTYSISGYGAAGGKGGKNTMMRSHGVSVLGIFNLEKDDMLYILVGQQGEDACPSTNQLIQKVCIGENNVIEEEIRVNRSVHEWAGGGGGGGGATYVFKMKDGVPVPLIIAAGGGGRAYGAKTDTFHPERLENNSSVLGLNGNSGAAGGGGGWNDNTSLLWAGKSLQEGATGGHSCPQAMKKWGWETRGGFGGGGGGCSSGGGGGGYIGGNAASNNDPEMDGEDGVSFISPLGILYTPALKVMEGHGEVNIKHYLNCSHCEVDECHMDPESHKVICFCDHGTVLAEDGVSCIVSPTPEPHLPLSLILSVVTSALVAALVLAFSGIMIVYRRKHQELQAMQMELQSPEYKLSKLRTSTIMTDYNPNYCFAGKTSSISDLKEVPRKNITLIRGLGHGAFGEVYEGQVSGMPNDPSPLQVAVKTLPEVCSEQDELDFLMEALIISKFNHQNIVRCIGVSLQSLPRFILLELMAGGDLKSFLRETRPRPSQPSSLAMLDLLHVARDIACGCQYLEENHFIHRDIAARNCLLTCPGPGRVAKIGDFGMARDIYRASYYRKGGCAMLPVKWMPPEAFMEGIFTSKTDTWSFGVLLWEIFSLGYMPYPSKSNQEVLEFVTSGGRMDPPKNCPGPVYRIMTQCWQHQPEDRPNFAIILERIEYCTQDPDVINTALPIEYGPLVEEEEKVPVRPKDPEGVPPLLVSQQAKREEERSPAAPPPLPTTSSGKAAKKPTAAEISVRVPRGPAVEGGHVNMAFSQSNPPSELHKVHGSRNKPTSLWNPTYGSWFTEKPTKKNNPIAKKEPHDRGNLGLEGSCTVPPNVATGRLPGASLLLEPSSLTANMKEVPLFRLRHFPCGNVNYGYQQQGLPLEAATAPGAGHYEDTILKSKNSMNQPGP
Sequence of TYK2 (P29597 whole entry): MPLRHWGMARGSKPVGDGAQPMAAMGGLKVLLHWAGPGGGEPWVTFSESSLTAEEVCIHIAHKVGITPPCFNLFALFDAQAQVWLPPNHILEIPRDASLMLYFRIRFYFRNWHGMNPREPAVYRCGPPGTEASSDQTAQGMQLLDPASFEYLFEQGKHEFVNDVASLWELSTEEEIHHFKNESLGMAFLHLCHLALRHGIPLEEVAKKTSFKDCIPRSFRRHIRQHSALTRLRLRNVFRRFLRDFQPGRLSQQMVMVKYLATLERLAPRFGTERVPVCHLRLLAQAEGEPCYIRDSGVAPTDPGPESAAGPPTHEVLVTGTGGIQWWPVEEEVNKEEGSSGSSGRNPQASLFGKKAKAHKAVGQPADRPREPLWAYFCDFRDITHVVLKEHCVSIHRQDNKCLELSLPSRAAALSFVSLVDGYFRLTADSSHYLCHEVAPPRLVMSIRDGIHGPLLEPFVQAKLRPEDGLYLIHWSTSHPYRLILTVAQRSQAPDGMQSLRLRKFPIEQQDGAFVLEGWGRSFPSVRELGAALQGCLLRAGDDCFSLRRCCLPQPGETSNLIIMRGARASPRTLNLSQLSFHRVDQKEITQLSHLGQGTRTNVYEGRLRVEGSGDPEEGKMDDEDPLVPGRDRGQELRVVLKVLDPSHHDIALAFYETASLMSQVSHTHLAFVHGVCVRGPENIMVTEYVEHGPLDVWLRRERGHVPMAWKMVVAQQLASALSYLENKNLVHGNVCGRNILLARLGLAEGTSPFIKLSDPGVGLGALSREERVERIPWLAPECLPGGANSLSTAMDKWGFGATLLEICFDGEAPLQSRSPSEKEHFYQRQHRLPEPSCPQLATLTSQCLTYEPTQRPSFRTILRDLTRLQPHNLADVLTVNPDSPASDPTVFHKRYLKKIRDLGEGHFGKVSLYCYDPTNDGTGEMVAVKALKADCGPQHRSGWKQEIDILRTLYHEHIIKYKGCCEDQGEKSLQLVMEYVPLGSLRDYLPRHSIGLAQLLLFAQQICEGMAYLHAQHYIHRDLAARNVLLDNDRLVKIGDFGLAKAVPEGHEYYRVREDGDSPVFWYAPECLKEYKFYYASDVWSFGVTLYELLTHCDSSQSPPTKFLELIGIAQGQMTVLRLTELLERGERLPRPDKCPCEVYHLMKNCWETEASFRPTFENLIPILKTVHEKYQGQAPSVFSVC
T2 sequence (P52333 781-1124): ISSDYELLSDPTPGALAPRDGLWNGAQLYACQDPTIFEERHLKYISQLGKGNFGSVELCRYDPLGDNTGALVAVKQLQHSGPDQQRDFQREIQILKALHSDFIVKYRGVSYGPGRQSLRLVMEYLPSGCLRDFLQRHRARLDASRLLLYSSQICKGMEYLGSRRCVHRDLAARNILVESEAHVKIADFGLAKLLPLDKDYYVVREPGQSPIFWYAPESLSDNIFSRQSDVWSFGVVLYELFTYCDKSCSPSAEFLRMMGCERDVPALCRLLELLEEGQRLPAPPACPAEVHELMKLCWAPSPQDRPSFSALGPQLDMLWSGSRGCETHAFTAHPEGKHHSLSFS
T1 sequence (P23458 849-1154): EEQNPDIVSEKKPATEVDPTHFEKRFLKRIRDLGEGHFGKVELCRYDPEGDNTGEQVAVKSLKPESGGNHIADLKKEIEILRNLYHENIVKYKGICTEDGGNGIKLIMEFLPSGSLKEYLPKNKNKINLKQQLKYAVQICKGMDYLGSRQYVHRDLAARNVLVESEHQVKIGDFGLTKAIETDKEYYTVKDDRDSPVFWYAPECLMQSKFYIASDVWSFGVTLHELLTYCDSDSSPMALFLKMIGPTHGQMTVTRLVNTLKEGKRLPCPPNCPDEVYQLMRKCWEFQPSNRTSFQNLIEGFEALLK
T4 sequence (O60674 828-1132): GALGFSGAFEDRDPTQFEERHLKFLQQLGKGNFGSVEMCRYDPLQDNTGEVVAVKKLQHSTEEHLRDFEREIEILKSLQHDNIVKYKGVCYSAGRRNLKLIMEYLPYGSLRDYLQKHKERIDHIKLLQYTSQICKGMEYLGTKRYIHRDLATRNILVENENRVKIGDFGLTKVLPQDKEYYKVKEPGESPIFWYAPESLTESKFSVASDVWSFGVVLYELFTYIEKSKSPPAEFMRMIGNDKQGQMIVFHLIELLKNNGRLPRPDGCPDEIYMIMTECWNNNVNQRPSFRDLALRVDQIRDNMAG

SMILES	IC50 [1]	IC50 [2]	ALK % of inhibition at a concentration of 500 nM or 1 mM [3]	IC50 (TYK2)	IC50 [4]
Cc1ccnc(Nc2ccc3cc2CCc2cccc(c2)Nc2ncc(Cl)c(n2)N3)n1 [Example B276, 6-Chloro-N-(4-methylpyrimidin-2-yl)-2,4,8,22-tetraazatetracyclo[14.3.1.1(3,7).1(9,13)]docosa-1(20),3(22),4,6,9(21),10,12,16,18-nonaen-12-amine bis(trifluoroacetate)]	6.5 nM	1170 nM	22%	34 nM	11 nM
Oc1ccnc(Nc2ccc3cc2CCc2cccc(c2)Nc2ncc(Cl)c(n2)N3)n1 [Example B277, 2-{[6-Chloro-2,4,8,22-tetraazatetracyclo[14.3.1.1(3,7).1(9,13)]docosa-1(20),3(22),4,6,9(21),10,12,16,18-nonaen-12-yl]amino}pyrimidin-4-ol bis(trifluoroacetate)]	4.8 nM	359 nM	54%	62 nM	5.9 nM
CCOC(=O)c1coc(Nc2ccc3cc2CCc2cccc(c2)Nc2ncc(Cl)c(n2)N3)n1 [Example B278, Ethyl 2-{[6-chloro-2,4,8,22-tetraazatetracyclo[14.3.1.1(3,7).1(9,13)]docosa-1(20),3(22),4,6,9(21),10,12,16,18-nonaen-12-yl]amino}-1,3-oxazole-4-carboxylate bis(trifluoroacetate)]	47 nM	1850 nM	10%	222 nM	126 nM

Further lines, results first:

IC50 [1]	IC50 [2]	ALK % of inhibition at a concentration of 500 nM or 1 mM [3]	IC50 (TYK2)	IC50 [4]	SMILES
86 nM	> 10000 nM	0.76%	549 nM	158 nM	Clc1cnc2nc1Nc1ccc(Nc3nccc(-c4ccccc4)n3)c(c1)CCc1cccc(c1)N2 [Example B279, 6-Chloro-N-(4-phenylpyrimidin-2-yl)-2,4,8,22-tetraazatetracyclo[14.3.1.1(3,7).1(9,13)]docosa-1(20),3(22),4,6,9(21),10,12,16,18-nonaen-12-amine tris(trifluoroacetate)]
276 nM	> 10000 nM	4.6%	1790 nM	446 nM	Cc1cc(C(=O)Nc2ccc3cc2CCc2cccc(c2)Nc2ncc(Cl)c(n2)N3)nc(Cl)n1 [Example B280, 2-Chloro-N-[6-chloro-2,4,8,22-tetraazatetracyclo[14.3.1.1(3,7).1(9,13)]docosa-1(20),3(22),4,6,9(21),10,12,16,18-nonaen-12-yl]-6-methylpyrimidine-4-carboxamide bis(trifluoroacetate)]
15 nM	1400 nM	24%	2300 nM	150 nM	NC1CCN(c2ccnc(Nc3ccc4cc3CCc3cccc(c3)Nc3ncc(Cl)c(n3)N4)n2)CC1 [Example B281, N-[4-(4-Aminopiperidin-1-yl)pyrimidin-2-yl]-6-chloro-2,4,8,22-tetraazatetracyclo[14.3.1.1(3,7).1(9,13)]docosa-1(20),3(22),4,6,9(21),10,12,16,18-nonaen-12-amine tris(trifluoroacetate)]
141 nM	> 1000 nM	30%	550 nM	165 nM	CN(C(=O)Nc1ccc2cc1CCc1cccc(c1)Nc1ncc(Cl)c(n1)N2)[C@H]1CCN(Cc2ccccc2)C1 [Example B283, N-[(3S)-1-Benzylpyrrolidin-3-yl]-N′-[6-chloro-2,4,8,22-tetraazatetracyclo[14.3.1.1(3,7).1(9,13)]docosa-1(20),3(22),4,6,9(21),10,12,16,18-nonaen-12-yl]-N-methylurea]
